Measurements reported in patent publication US6737383B1, “Herbicidal oxadiazolidines” (priority 1999, dated 2004).

Legend:
Conditions in all cases: Preemergence
bedstraw = assay: Test B pre/postemergence bedstraw; type: in vivo, Galium aparine
Procedure, shortened: (§1)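 Response is a visual 0-to-10 score relative to untreated plants, where 0 means no effect and 10 means complete control, taken twelve to sixteen days after application. Treatments went onto soil at planting and onto foliage of 1- to 4-leaf plants, using a surfactant-containing non-phytotoxic solvent.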

corn = assay: Test B pre/postemergence corn; type: in vivo, Zea mays
Procedure, shortened: as §1

crabgrass = assay: Test B pre/postemergence crabgrass; type: in vivo, Digitaria sanguinalis
Procedure, shortened: as §1

wild oat = assay: Test B pre/postemergence wild oat; type: in vivo, Avena fatua
Procedure, shortened: as §1

giant foxtail = assay: Test B pre/postemergence giant foxtail; type: in vivo, Setaria faberii
Procedure, shortened: as §1

sugar beet = assay: Test B pre/postemergence sugar beet; type: in vivo, Beta vulgaris
Procedure, shortened: as §1

pigweed = assay: Test B pre/postemergence pigweed; type: in vivo, Amaranthus retroflexus
Procedure, shortened: as §1

soybean = assay: Test B pre/postemergence soybean; type: in vivo, Glycine max
Procedure, shortened: as §1

velvetleaf = assay: Test B pre/postemergence velvetleaf; type: in vivo, Abutilon theophrasti
Procedure, shortened: as §1

rape = assay: Test B pre/postemergence rape; type: in vivo, Brassica napus
Procedure, shortened: as §1

blackgrass = assay: Test B pre/postemergence blackgrass; type: in vivo, Alopecurus myosuroides
Procedure, shortened: as §1

wheat = assay: Test B pre/postemergence wheat; type: in vivo, Triticum aestivum
Procedure, shortened: as §1

cocklebur = assay: Test B pre/postemergence cocklebur; type: in vivo, Xanthium strumarium
Procedure, shortened: as §1

surinam grass = assay: Test B pre/postemergence surinam grass; type: in vivo, Brachiaria decumbens
Procedure, shortened: as §1

morningglory = assay: Test B pre/postemergence morningglory; type: in vivo, Ipomoea hederacea
Procedure, shortened: as §1

purple nutsedge = assay: Test B pre/postemergence purple nutsedge; type: in vivo, Cyperus rotundus
Procedure, shortened: as §1

[1] = Rate 62 g/ha, scale of 0 to 10 where 0 is no effect and 10 is complete control
[2] = Rate 125 g/ha, scale of 0 to 10 where 0 is no effect and 10 is complete control
[3] = Rate 250 g/ha, scale 0 (no effect) to 10 (complete control)
[4] = Rate 500 g/ha, scale 0 to 10 (0 no effect, 10 complete control)

CC(C)N(C(=O)n1oc(=O)n(C(C)C(=S)N(C)C)c1=O)c1ccc(Cl)cc1 (stereo not drawn) [Compound 733]
Bedstraw plant response rating (bedstraw; [1]): 0
Plant response rating, Bedstraw (bedstraw; [2]): 0
Bedstraw plant response rating (bedstraw; [3]): 0
Bedstraw plant response rating (bedstraw; [4]): 0
Corn plant response rating (corn; [1]): 0
Plant response rating, Corn (corn; [2]): 0
Corn plant response rating (corn; [3]): 0
Corn plant response rating (corn; [4]): 0
Crabgrass plant response rating (crabgrass; [1]): 2
Plant response rating, Crabgrass (crabgrass; [2]): 5
Crabgrass plant response rating (crabgrass; [3]): 9
Crabgrass plant response rating (crabgrass; [4]): 9
Wild oats plant response rating (wild oat; [1]): 2
Plant response rating, Wild oats (wild oat; [2]): 2
Wild oats plant response rating (wild oat; [3]): 2
Wild oats plant response rating (wild oat; [4]): 8
Giant foxtail plant response rating (giant foxtail; [1]): 3
Plant response rating, Giant foxtail (giant foxtail; [2]): 6
Giant foxtail plant response rating (giant foxtail; [3]): 9
Giant foxtail plant response rating (giant foxtail; [4]): 9
Sugarbeets plant response rating (sugar beet; [1]): 0
Plant response rating, Sugarbeets (sugar beet; [2]): 0
Sugarbeets plant response rating (sugar beet; [3]): 0
Sugarbeets plant response rating (sugar beet; [4]): 0
Redroot pigweed plant response rating (pigweed; [1]): 0
Plant response rating, Redroot pigweed (pigweed; [2]): 0
Redroot pigweed plant response rating (pigweed; [3]): 5
Redroot pigweed plant response rating (pigweed; [4]): 7
Soybean plant response rating (soybean; [1]): 0
Plant response rating, Soybean (soybean; [2]): 0
Soybean plant response rating (soybean; [3]): 0
Soybean plant response rating (soybean; [4]): 0
Velvetleaf plant response rating (velvetleaf; [1]): 0
Plant response rating, Velvetleaf (velvetleaf; [2]): 0
Velvetleaf plant response rating (velvetleaf; [3]): 0
Velvetleaf plant response rating (velvetleaf; [4]): 1
Rape plant response rating (rape; [1]): 0
Plant response rating, Rape (rape; [2]): 0
Rape plant response rating (rape; [3]): 3
Rape plant response rating (rape; [4]): 5
Blackgrass plant response rating (blackgrass; [1]): 4
Plant response rating, Blackgrass (blackgrass; [2]): 7
Blackgrass plant response rating (blackgrass; [3]): 8
Blackgrass plant response rating (blackgrass; [4]): 10
Wheat plant response rating (wheat; [1]): 0
Plant response rating, Wheat (wheat; [2]): 0
Wheat plant response rating (wheat; [3]): 0
Wheat plant response rating (wheat; [4]): 0
Cocklebur plant response rating (cocklebur; [1]): 0
Plant response rating, Cocklebur (cocklebur; [2]): 0
Cocklebur plant response rating (cocklebur; [3]): 0
Cocklebur plant response rating (cocklebur; [4]): 0
B. signalgrass plant response rating (surinam grass; [1]): 6
Plant response rating, B. signalgrass (surinam grass; [2]): 6
B. signalgrass plant response rating (surinam grass; [3]): 8
B. signalgrass plant response rating (surinam grass; [4]): 10
Morningglory plant response rating (morningglory; [1]): 1
Plant response rating, Morningglory (morningglory; [2]): 1
Morningglory plant response rating (morningglory; [3]): 2
Morningglory plant response rating (morningglory; [4]): 2
Nutsedge plant response rating (purple nutsedge; [1]): 0
Plant response rating, Nutsedge (purple nutsedge; [2]): 0
Nutsedge plant response rating (purple nutsedge; [3]): 0
